Measurements taken from patent publication US20240148821A1, “PHARMACEUTICAL USE OF CYCLIC PEPTIDE COMPOUND” (CHUGAI SEIYAKU KABUSHIKI KAISHA, priority 2021, published 2024).
Numbered stars: 1 amine (or outer) side, 2 acyl side, 3 side chain; on linkers, the order of the positions; unused ones are H or OH. Bridge positions count the residues as written; N and C are the ends. Square brackets hold non-standard residues; d marks the D form. Peptide text beside a SMILES is read from it. * marks the point of attachment. hPhe(3,5-F2-4-CF3) = N[C@@H](CCc1cc(F)c(C(F)(F)F)c(F)c1)C(=O)O; hPhe(3-Cl-4-CF3) = N[C@@H](CCc1ccc(C(F)(F)F)c(Cl)c1)C(=O)O; hPhe(3-F,4-CF3) = N[C@@H](CCc1ccc(C(F)(F)F)c(F)c1)C(=O)O; NMePhe(4-CF3) = CN[C@@H](Cc1ccc(C(F)(F)F)cc1)C(=O)O; 3Oxa8azabicyclo(3.2.1)octane = C1CC2COCC1N2*; NMePhe(4-Me) = CN[C@@H](Cc1ccc(C)cc1)C(=O)O; NMedβ3hAla = C[C@H](CC(=O)[*:2])N(C)[*:1]; NMeAla(cPent) = CN[C@@H](CC1CCCC1)C(=O)O; NMeGly(cPent) = CN[C@H](C(=O)O)C1CCCC1; Pro(4,4-F2) = O=C(O)[C@@H]1CC(F)(F)CN1; NMeCha = CN[C@@H](CC1CCCCC1)C(=O)O; cisHyp = O=C(O)[C@@H]1C[C@H](O)CN1; NMeChg = CN[C@H](C(=O)O)C1CCCCC1; NMeI = CC[C@H](C)[C@H](NC)C(=O)O; NMeT = CN[C@H](C(=O)O)[C@@H](C)O; d(β3hL) = CC(C)C[C@@H](N)CC(=O)O; NMeD = CN[C@@H](CC(=O)O)C(=O)O; NMeL = CN[C@@H](CC(C)C)C(=O)O; NMeNva = CCC[C@H](NC)C(=O)O; NMeV = CN[C@H](C(=O)O)C(C)C; NMeS = CN[C@@H](CO)C(=O)O; NMeA = CN[C@@H](C)C(=O)O; Piperidide = C1CCN(*)CC1; Pyrrolidide = C1CCN(*)C1; Ac5c = NC1(C(=O)O)CCCC1; Aze = O=C(O)[C@@H]1CCN1; Ethyl(2-OH) = OCC*; Sar = CNCC(=O)O; Propyl = CCC*

biological target: protein-protein interaction between Kras and SOS1 (biotin-tagged human Kras loaded with GDP, His-tagged human SOS1) (Homo sapiens (Human), UniProt P01116, G12D); assay: Protein-protein interaction inhibition between Kras and SOS1 (KrasG12D-SOS PPI) using AlphaScreen; type: biochemical; conditions: AlphaScreen; biotin-tagged human Kras loaded with GDP, His-tagged human SOS1; read-out: KRAS G12D-SOS PPI IC50;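 also: kras produced in E. coli, Ni-coupled donor beads and streptavidin acceptor beads, excitation 680 nm with emission detected at 520–620 nm via singlet oxygen transfer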

SMILES	IC50 [nM]
CC[C@H](C)[C@@H]1NC(=O)[C@H](CC(C)C)N(C)C(=O)C[C@@H](CC(C)C)NC(=O)[C@H]([C@@H](C)CC)N(C)C(=O)C2(CCCC2)NC(=O)[C@@H]2CCCN2C(=O)[C@H](CCc2cc(F)c(C(F)(F)F)c(F)c2)NC(=O)CN(C)C(=O)[C@H](Cc2ccc(C)cc2)N(C)C(=O)[C@@H]2CCN2C(=O)[C@H](C)N(C)C1=O [Compound 1891] (cyclo([Ac5c][NMeI][d(β3hL)][NMeL]I[NMeA][Aze][NMePhe(4-Me)][Sar][hPhe(3,5-F2-4-CF3)]P))	230
CC[C@H](C)[C@@H]1NC(=O)[C@H](CC2CCCC2)N(C)C(=O)C[C@@H](C(=O)N(C)C)N(C)C(=O)[C@H](C2CCCC2)N(C)C(=O)C2(CCCC2)NC(=O)[C@@H]2CCCN2C(=O)[C@H](CCc2ccc(C(F)(F)F)c(F)c2)NC(=O)CN(C)C(=O)[C@H](CC2CCCCC2)N(C)C(=O)[C@@H]2CCN2C(=O)[C@H](C)NC1=O [Compound 1340] ([NMeAla(cPent)]IA[Aze][NMeCha][Sar][hPhe(3-F,4-CF3)]P[Ac5c][NMeGly(cPent)][NMeD]-NMe2; lactam N-11)	1.2
CC[C@H](C)[C@@H]1NC(=O)[C@H](CC(C)C)N(C)C(=O)C[C@@H](C(=O)N2CCCC2)N(C)C(=O)[C@H]([C@@H](C)CC)N(C)C(=O)C2(CCCC2)NC(=O)[C@@H]2CCCN2C(=O)[C@H](CCc2ccc(C(F)(F)F)c(F)c2)NC(=O)CN(C)C(=O)[C@H](Cc2ccc(C)cc2)N(C)C(=O)[C@@H]2CCN2C(=O)[C@H](C)N(C)C1=O [Compound 44] ([NMeL]I[NMeA][Aze][NMePhe(4-Me)][Sar][hPhe(3-F,4-CF3)]P[Ac5c][NMeI][NMeD]-Pyrrolidide; lactam N-11)	1.1
CC[C@H](C)[C@@H]1NC(=O)[C@H](CC(C)C)N(C)C(=O)C[C@@H](C(=O)N2CCCCC2)N(C)C(=O)[C@H](C2CCCCC2)N(C)C(=O)C2(CCCC2)NC(=O)[C@@H]2C[C@H](OCCO)CN2C(=O)[C@H](CCc2ccc(C(F)(F)F)c(Cl)c2)NC(=O)CN(C)C(=O)[C@H](CC2CCCCC2)N(C)C(=O)CN(C)C(=O)CN(C)C1=O [Compound 2117, (3S,9S,18S,21S,25S,28S,34S,36S)-3-[2-[3-chloro-4-(trifluoromethyl)phenyl]ethyl]-28-cyclohexyl-9-(cyclohexylmethyl)-36-(2-hydroxyethoxy)-21-isobutyl-7,10,13,16,22,26,29-heptamethyl-18-[(1S)-1-methylpropyl]-25-(piperidine-1-carbonyl)spiro[1,4,7,10,13,16,19,22,26,29,32-undecazabicyclo[32.3.0]heptatriacontane-31,1′-cyclopentane]-2,5,8,11,14,17,20,23,27,30,33-undecone] ([NMeL]I[Sar][Sar][NMeCha][Sar][hPhe(3-Cl-4-CF3)][cisHyp](Ethyl(2-OH))[Ac5c][NMeChg][NMeD]-Piperidide; lactam N-11)	0.41
CCCOC[C@H]1C(=O)N(C)CC(=O)N[C@@H](CCc2cc(F)c(C(F)(F)F)c(F)c2)C(=O)N2CCC[C@H]2C(=O)NC2(CCCC2)C(=O)N(C)[C@@H](C2CCCC2)C(=O)N(C)[C@H](C(=O)N2C3CCC2COC3)CC(=O)N(C)[C@@H](CC(C)C)C(=O)N[C@@H]([C@@H](C)CC)C(=O)N(C)[C@@H](C)C(=O)N2CC[C@H]2C(=O)N1C [Compound 1355] ([NMeL]I[NMeA][Aze][NMeS](Propyl)[Sar][hPhe(3,5-F2-4-CF3)]P[Ac5c][NMeGly(cPent)][NMeD]-{3Oxa8azabicyclo(3.2.1)octane}; lactam N-11)	3.2
CCC[C@H]1C(=O)N(C)[C@H](C(=O)N2CCCCC2)CC(=O)N(C)[C@@H](CC(C)C)C(=O)N[C@@H]([C@@H](C)CC)C(=O)N(C)[C@@H](C)C(=O)N2CC[C@H]2C(=O)N(C)[C@@H](CC2CCCCC2)C(=O)N(C)CC(=O)N[C@@H](CCc2ccc(C(F)(F)F)c(Cl)c2)C(=O)N2CCC[C@H]2C(=O)NC2(CCCC2)C(=O)N1C [Compound 995] ([NMeL]I[NMeA][Aze][NMeCha][Sar][hPhe(3-Cl-4-CF3)]P[Ac5c][NMeNva][NMeD]-Piperidide; lactam N-11)	5.7
CC[C@H](C)[C@@H]1NC(=O)[C@H](CC(C)C)N(C)C(=O)C[C@@H](C)N(C)C(=O)[C@H](C2CCCCC2)N(C)C(=O)C2(CCCC2)NC(=O)[C@@H]2CC(F)(F)CN2C(=O)[C@H](CCc2ccc(C(F)(F)F)c(Cl)c2)NC(=O)CN(C)C(=O)[C@H](Cc2ccc(C(F)(F)F)cc2)N(C)C(=O)[C@@H]2CCN2C(=O)[C@H](C)N(C)C1=O [Compound 319] (cyclo([Ac5c][NMeChg][NMedβ3hAla][NMeL]I[NMeA][Aze][NMePhe(4-CF3)][Sar][hPhe(3-Cl-4-CF3)][Pro(4,4-F2)]))	8.2
CC[C@H](C)[C@@H]1NC(=O)[C@H](CC(C)C)N(C)C(=O)C[C@@H](C(=O)N2CCCCC2)N(C)C(=O)[C@H](C(C)C)N(C)C(=O)C2(CCCC2)NC(=O)[C@@H]2CCCN2C(=O)[C@H](CCc2ccc(C(F)(F)F)c(Cl)c2)NC(=O)CN(C)C(=O)[C@H]([C@@H](C)OC)N(C)C(=O)[C@@H]2CCN2C(=O)[C@H](C)N(C)C1=O [Compound 929] ([NMeL]I[NMeA][Aze][NMeT](Me)[Sar][hPhe(3-Cl-4-CF3)]P[Ac5c][NMeV][NMeD]-Piperidide; lactam N-11)	4.1
